Test results from patent US20250221936A1, “ENGINEERED HEMICHANNELS, ENGINEERED VESICLES, AND USES THEREOF” (VIRGINIA TECH INTELLECTUAL PROPERTIES, INC., priority 2018, published 2025).
“Also recorded” adds a separate entry of the source.

Columns and labels:
[1] = target: T1, Cx43 hemichannel (Homo sapiens, UniProt P17302); conditions: 50 μM for 2 hrs; cited from earlier work
T1 construct: expressed in transfected cells; host or cells: HeLa (Cx43-HeLa)

[2] = test system: silicon wafer implants; conditions: 24 hours; cited from earlier work
[3] = test system: Cx43-HeLa; assay type: cell-based
Protocol: The first tests of JM1 and JM2 were performed and the experiments centered on the basic cell biology of the peptides.

[4] = test system: Cx43-Hela cells; assay: Cx43 and ZO-1 immunofluorescent labeling; assay type: cell-based; conditions: 10 μM for 2, 4, 24, or 48 hours
Protocol: Given that the 10UM concentration of peptide was not toxic to cells, the inventors treated Cx43-Hela cells with 10 μM JM1 or JM2 for 2, 4, 24, or 48 hours followed by fixation and immunofluorescent labeling of Cx43 and ZO-1. Said peptides can be loaded into the provided EVs and can elicit results similar to those observed for naked peptide as follows. […] However, the most striking effects were on ZO-1 organization. In control cells ZO-1 localized to cell borders, often at sites of small, finger-like projections between the cells. Cytoplasmic ZO-1 was also notable. In JM-treated cells a strong contrast in the ratio of cell border to cytoplasmic ZO-1 was found, with relative levels at cell borders being increased over controls. […] There was also a noticeable increase in the number of cells per area of field, supporting the earlier observation that JM2 treated cells appeared to proliferate and survive at an increased rate.

[5] = test system: Cx43-Hela cells; conditions: cited from earlier work
[6] = test system: cancer stem cells CSCs; conditions: CSCs derived from patient tumors; cited from earlier work
[7] = target: T2, Cx43 CT (amino acids 255 to 382) (Rattus norvegicus, UniProt P08050); assay: Surface plasmon resonance, Cx43 CT analyte; assay type: binding; conditions: biotin-peptide immobilized on streptavidin chip; analyte 0.5 to 15 μM
T2 construct: Cx43-CT: amino acids 255 to 382; GST (N, cleaved yes); made in house; host or cells: E. coli BL21
Protocol: Efficacy of the interaction of each alpha CT1 variant with Cx43 CT or Cx43 CT-KK/QQ was tested using surface plasmon resonance (SPR) as described previously 20. In brief, SPR experiments were performed using a Biacore T200 (GE Healthcare). Equal amounts (response units/RU) of biotin-alpha CT1 variants were immobilized on each flow cell of a streptavidin-coated sensor chip (Biacore Inc) using immobilization buffer (in mM: 10 HEPES, 1 EDTA, 100 NaCl, 0.005% Tween-20) at pH 7.4. Measurements with wild-type (wt) Cx43 CT and mutant Cx43 CT-KK/QQ analytes were done in running buffer (in mM: 10 HEPES, 100 NaCl, pH 7.4) at a flow rate of 30 μl/min. Binding of analytes were verified at different concentrations, in random order (injection volume 120 μl). Interacting proteins were then unbound by injection of […] regeneration buffer (50 mM NaOH and 1 M NaCl) at a flow rate of 10 μl/min. Background levels were obtained from a reference cell containing a biotin-control peptide in which the reversed sequence of the last 9 amino acids of Cx43 was fused to biotin-antennapedia. The RU values obtained with biotin-control peptide were subtracted from the RU values obtained with the different biotin-alphaCT1 variants (wild-type or mutant) to generate the different response curves.

[8] = test system: chronic, slow healing skin wounds; conditions: diabetic foot ulcers and venous leg ulcers; cited from earlier work
[9] = test system: silicone implants; conditions: days 1, 2, 3, 14, and 28; cited from earlier work
[10] = test system: 8 mm diameter round wound; conditions: cited from earlier work
[11] = target: T3, Cx43 Y313-A348 peptide (Rattus norvegicus, UniProt P08050); assay: SPR of captured aCT1 with Cx43 Y313-A348 peptide; assay type: binding; conditions: unlinked Cx43 Y313-A348 peptide (25 µM)
T3 construct: made in house; host or cells: chemical synthesis
Protocol: (§1) FIGS. 28A-28D. […] (FIG. 28B) Schematic representation of the Cx43 Y313-A348 peptide synthesized for a binding surface surrogate 1 with linkable cysteine (Cys) on the amino terminus and CT. (FIG. 28C) Single letter amino acid sequence of Cx43 Y313-A348 peptide with predicted helix secondary structure underlined. (FIG. 28D) Surface Plasmon Resonance (SPR) analysis of substrate captured aCT1 (700-1000 RUs) binding recombinant Cx43 CT (100 µM, light grey), unlinked Cx43 Y313-A348 peptide (25 µM, black), and disulfide linked Cx43 Y313-A348 (25 µM, dark grey). […] Disulfide cross-linking Cx43 Y313-A348 into a looped conformation results in a loss of aCT1 binding, thus aCT1 interaction with this peptide requires a degree conformational flexibility. Cx43 Y313-A348 peptide can provide an assay for screening for novel Cx43 interacting drugs.
(§2) A […] peptide mimetic encompassing amino acids Y313 through A348 of the Cx43 CT was synthesized, containing the H1 and H2 a-helical regions (FIGS. 28A-28D). […] Cx43 Y313-A348 was designed to have cysteines at its NT and CT, which were used to disulfide cross-link the peptide into a cyclized conformation (FIG. 28B). […]

[12] = test system: Cx43 Y313-A348 peptide; assay: SPR of captured aCT1 with Cx43 Y313-A348 peptide; assay type: binding; conditions: disulfide linked Cx43 Y313-A348 (25 µM)
Protocol: as §1, §2

[13] = test system: choroidal neovascularization; conditions: mouse, in vivo; cited from earlier work
[14] = test system: C6 glioma cell line; conditions: cited from earlier work
[15] = test system: U87 MG glioblastoma cells; conditions: cited from earlier work

T2 sequence (P08050 255-382): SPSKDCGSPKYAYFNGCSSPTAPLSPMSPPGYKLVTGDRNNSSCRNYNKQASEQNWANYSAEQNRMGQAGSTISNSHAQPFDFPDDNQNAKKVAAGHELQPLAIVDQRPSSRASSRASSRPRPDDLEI
T3 sequence (P08050 with tags, fused parts or gaps): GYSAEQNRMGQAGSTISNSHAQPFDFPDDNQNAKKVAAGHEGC
T1 sequence (P17302 2-382 limits assumed): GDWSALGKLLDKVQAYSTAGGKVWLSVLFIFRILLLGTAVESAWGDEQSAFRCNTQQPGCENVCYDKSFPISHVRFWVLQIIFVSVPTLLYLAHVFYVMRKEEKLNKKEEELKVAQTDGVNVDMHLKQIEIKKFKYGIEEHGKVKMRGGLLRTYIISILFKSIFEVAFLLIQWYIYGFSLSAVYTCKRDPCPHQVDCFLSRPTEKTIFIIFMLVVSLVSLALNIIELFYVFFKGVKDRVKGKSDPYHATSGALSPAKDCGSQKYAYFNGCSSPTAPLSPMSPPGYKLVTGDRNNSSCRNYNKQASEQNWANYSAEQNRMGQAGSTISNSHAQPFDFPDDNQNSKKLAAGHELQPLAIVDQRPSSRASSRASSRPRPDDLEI

VFFKGVKDRVKGRSD [JM2]
hemichannel activity [1]: significantly reduced hemichannel activity
tissue reaction zone [2]: substantially narrower tissue reaction zone
toxicity (cell death) [3]: no obvious toxicity
confluence ([3]; 24 hours): more confluent than control cells
Cx43 and ZO-1 localization [4]: greater cytoplasmic Cx43 was observed; also recorded: well defined cell-cell interfaces
Cx43 GJ labeling ([5]; 10 μM for 2, 6, and 24 hrs): displayed little GJ labeling; also recorded: GJ labeling began to return at 6 hrs, and appeared normal after 24 hrs
microtubule organization ([5]; 2 hr): disruption of microtubule organization
CSC survival [6]: decreases CSC survival in vitro and in vivo

RQPKIWFPNRRKPWKKRPRPDDLAI [M3 DDLAI]
SPR binding to Cx43 CT [7]: abrogated peptide interaction with Cx43 CT

RQPKIWFPNRRKPWKK RPRPAALAI (RQPKIWFPNRRKPWKKRPRPAALAI) [M1 AALAI]
SPR binding to Cx43 CT [7]: loss of Cx43 CT binding competence

RQPKIWFPNRRKPWKKRPRPDDLEI [alpha CT1]
healing of skin wounds [8]: high level of efficacy in promoting the healing of two types of chronic, slow healing skin wounds; also recorded: increased the healing rate of slow-healing skin wounds
wound-healing and foreign body responses [9]: attenuating neutrophil infiltration, increasing vascularity of the capsule tissue, reducing type I collagen deposition around the implant, and reducing the continued presence of contractile myofibroblasts
scar size ([10]; 150 μM peptide, collagen gel, 30 days): significantly (p<0.05) smaller than the controls
wound closure rate ([10]; rat, in vivo): consistent significantly faster closure rates than the other 4 wounds
SPR interaction [11]: levels of interaction with aCT1 comparable to the full Cx43 CT sequence
SPR interaction [12]: complete loss of aCT1 binding
CNV injury spread and retinal function (ERG) [13]: reduced CNV injury spread and improved retinal function
adhesive properties [14]: did not change in response to peptide treatment
morphology [14]: altered morphology
aggregation [15]: higher degree of aggregation
